Experimental data from ChEMBL document CHEMBL1135940, “2-Amino-4-[3'-hydroxyphenyl]-4-hydroxybutanoic acid; a potent inhibitor of rat and recombinant human kynureninase” (Bioorg Med Chem Lett, 2002).

How the values were obtained:
Kynureninase [1] = target: T1, Kynureninase (Homo sapiens, UniProt Q16719); assay: Tested for binding affinity against kynureninase enzyme from human
T1 sequence (Q16719 whole entry): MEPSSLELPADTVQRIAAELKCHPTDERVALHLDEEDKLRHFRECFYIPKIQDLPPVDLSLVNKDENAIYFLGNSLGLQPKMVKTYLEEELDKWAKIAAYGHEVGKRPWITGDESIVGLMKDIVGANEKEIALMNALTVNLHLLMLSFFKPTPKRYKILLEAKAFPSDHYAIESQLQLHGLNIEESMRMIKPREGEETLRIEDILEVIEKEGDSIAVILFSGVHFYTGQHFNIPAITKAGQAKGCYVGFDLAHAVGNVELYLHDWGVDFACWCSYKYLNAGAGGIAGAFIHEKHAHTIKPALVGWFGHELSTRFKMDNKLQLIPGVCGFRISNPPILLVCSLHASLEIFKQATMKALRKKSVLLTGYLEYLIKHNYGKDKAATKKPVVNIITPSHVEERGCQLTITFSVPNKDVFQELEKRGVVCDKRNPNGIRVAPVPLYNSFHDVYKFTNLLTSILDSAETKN

Kynureninase [2] = target: T2, Kynureninase (Rattus norvegicus, UniProt P70712); assay: Tested for binding affinity against kynureninase enzyme from rat
T2 sequence (P70712 whole entry): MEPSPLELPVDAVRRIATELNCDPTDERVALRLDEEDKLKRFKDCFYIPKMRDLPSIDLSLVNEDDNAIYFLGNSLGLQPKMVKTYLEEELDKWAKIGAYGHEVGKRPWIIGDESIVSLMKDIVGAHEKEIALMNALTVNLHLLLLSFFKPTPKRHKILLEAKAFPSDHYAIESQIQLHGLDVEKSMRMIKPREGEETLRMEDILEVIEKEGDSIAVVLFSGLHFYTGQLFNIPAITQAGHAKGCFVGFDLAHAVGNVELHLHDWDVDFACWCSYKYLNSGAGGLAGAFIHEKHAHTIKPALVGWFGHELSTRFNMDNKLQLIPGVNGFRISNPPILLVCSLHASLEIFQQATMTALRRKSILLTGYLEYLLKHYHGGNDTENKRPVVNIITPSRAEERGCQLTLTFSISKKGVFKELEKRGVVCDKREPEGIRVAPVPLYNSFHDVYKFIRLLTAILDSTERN

Ki (Kynureninase [1]): 100 nM
Ki (Kynureninase [2]): 130 nM
SMILES: NC(CC(O)c1cccc(O)c1)C(=O)O (configuration not stated)
